The values below are quoted from earlier work in patent publication US7919499B2, “Naltrexone long acting formulations and methods of use” (Alkermes, Inc., priority 2004, dated 2011).

Each structure is given as a SMILES string. Where two headings read alike, the source gives them in different places.

For this data set, the system named is patients with alcohol dependence. The note with it: oral vs placebo; for Risk difference as % reduction, relapse to heavy drinking / Risk difference (95% CI), relapse to heavy drinking: Hopkins meta-analysis; for Risk difference (95% CI), relapse to heavy drinking: nine studies, fixed effects model.
The mark [1] stands for this setting: Bouza et al, short term studies (≦12 weeks), listed as Oral Naltrexone.
Setting [2] is: Cochrane Review, 12 weeks, listed as Oral Naltrexone.

As to `O=C1CC[C@@]2(O)[C@H]3Cc4ccc(O)c5c4[C@@]2(CCN3CC2CC2)[C@H]1O5` [oral naltrexone, naltrexone], the “Risk difference as % reduction, relapse to heavy drinking” value is 13% and the “Risk difference (95% CI), relapse to heavy drinking” value is listed as 0.13. In addition, the “Decrease of odds of relapsing to heavy drinking relative to placebo” value (Bouza et al, short term studies (≦12 weeks)) is 38%. In addition, under setting [1], the “Decrease of odds of relapsing to heavy drinking relative to placebo” value was “(38% reduction)” and the “Odds ratio (95% CI), relapse to heavy drinking” value is listed as 0.62 (0.52, 0.75). For the same compound, under “Cochrane Review, 12 weeks”, the “Decrease of relapse rate relative to placebo” value is reported as 36%. In addition, under setting [2], the “Decrease of relapse rate relative to placebo” value is listed as “(36% reduction)” and the “Relative risk (95% CI), relapse to heavy drinking” value is recorded as 0.64 (0.51, 0.82). Under “listed as Oral Naltrexone”, the “Risk difference (95% CI), relapse to heavy drinking” value was 0.13 (0.08, 0.17) and the “Risk difference as % reduction, relapse to heavy drinking” value was “(13% reduction)”.
